Laboratory results published in US11945801B2, “Bicyclic aza compounds as muscarinic M1 and/or M4 receptor agonists” (Heptares Therapeutics Limited, priority 2018, dated 2024).

Legend:
Type in all cases: cell-based
[1] = molecular target: T1, human muscarinic M1 receptor (Homo sapiens, UniProt P11229); assay: Alphascreen Surefire phospho-ERK1/2 functional assay, M1; conditions: for % Emax cf. ACh, M1 / EC50: CHO cells stably expressing human M1; for % Emax cf. ACh, M1 / Emax: Emax relative to ACh; for EC50: agonist 5 min, 37° C., read-out: pEC50 M1 (converted); for Emax: CHO, read-out: % Emax cf. ACh, M1, CHO cells stably expressing human M1
T1 sequence (P11229 1-460): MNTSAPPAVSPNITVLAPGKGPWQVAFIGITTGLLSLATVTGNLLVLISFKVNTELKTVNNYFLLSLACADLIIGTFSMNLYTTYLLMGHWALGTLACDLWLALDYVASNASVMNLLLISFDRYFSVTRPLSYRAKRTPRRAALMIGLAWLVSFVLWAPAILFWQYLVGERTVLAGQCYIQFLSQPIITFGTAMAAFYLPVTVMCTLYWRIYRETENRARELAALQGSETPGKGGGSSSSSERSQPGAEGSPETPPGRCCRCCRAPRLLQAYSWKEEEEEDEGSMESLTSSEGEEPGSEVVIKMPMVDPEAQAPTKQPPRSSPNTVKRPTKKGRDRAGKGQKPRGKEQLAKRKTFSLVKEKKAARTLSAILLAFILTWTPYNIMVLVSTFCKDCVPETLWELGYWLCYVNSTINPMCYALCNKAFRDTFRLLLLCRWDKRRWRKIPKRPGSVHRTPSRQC
Experimental: (§1) ERK1/2 phosphorylation is a downstream consequence of both Gq/11 and Gi/o protein coupled receptor activation, making it highly suitable for the assessment of M1, M3 (Gq/11 coupled) and M2, M4 receptors (Gi/o coupled), rather than using different assay formats for different receptor subtypes. CHO cells stably expressing the human muscarinic M1, M2, M3 or M4 receptor were plated (25K/well) onto 96-well tissue culture plates in MEM-alpha+10% dialysed FBS. Once adhered, cells were serum-starved overnight. Agonist stimulation was performed by the addition of 5 μL agonist to the cells for 5 min (37° C.). Media was removed and 50 μL of lysis buffer added. After […], a 4 μL sample was transferred to 384-well plate and 7 μL of detection mixture added.
(§2) Isomer assignment (Isomer 1, Isomer 2, etc.) is based on the retention time of the compound using the separation technique that was performed in the final purification step. By implication, this could be reversed phase HPLC, chiral HPLC or chiral SFC retention time, and this will vary from compound to compound.

[2] = molecular target: T2, human muscarinic M2 receptor (Homo sapiens, UniProt P08172); assay: Alphascreen Surefire phospho-ERK1/2 functional assay, M2; conditions: for EC50: CHO cells stably expressing human M2, agonist 5 min, 37° C., read-out: pEC50 M2 (converted); for Emax: CHO, read-out: % Emax cf. ACh, M2, CHO cells stably expressing human M2, Emax relative to ACh
T2 sequence (P08172 1-466): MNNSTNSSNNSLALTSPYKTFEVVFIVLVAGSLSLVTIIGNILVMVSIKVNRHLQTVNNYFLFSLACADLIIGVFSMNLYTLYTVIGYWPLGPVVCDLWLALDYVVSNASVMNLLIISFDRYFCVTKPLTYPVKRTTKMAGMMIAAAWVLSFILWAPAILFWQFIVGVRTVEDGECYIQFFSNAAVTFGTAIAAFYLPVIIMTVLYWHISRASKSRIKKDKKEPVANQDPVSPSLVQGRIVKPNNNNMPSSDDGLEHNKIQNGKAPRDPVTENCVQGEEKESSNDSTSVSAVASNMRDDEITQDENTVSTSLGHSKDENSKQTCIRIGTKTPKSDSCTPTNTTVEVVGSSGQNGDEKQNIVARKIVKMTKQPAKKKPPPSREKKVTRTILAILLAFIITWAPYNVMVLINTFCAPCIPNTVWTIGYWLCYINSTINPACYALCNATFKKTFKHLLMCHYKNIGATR
Experimental: as §1, §2

[3] = molecular target: T3, human muscarinic M3 receptor (Homo sapiens, UniProt P20309); assay: Alphascreen Surefire phospho-ERK1/2 functional assay, M3; conditions: for EC50: CHO cells stably expressing human M3, agonist 5 min, 37° C., read-out: pEC50 M3 (converted); for Emax: CHO, read-out: % Emax cf. ACh, M3, CHO cells stably expressing human M3, Emax relative to ACh
T3 construct: expressed in transfected cells
T3 sequence (P20309 whole entry): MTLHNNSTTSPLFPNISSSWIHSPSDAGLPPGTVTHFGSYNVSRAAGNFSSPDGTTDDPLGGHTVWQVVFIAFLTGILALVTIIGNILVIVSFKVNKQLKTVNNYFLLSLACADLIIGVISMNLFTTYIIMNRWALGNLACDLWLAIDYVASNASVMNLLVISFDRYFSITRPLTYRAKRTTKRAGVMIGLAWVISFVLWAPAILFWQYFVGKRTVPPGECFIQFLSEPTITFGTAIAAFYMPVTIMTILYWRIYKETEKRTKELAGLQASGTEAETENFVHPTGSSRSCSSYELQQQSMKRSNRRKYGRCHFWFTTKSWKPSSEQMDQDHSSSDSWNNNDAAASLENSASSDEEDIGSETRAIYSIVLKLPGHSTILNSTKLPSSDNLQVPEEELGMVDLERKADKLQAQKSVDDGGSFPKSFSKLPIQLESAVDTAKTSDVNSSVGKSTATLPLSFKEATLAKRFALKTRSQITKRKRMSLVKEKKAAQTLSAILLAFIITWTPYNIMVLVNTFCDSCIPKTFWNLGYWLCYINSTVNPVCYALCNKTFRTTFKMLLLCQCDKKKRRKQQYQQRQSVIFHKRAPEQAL
Experimental: as §1, §2

[4] = molecular target: T4, human muscarinic M4 receptor (Homo sapiens, UniProt P08173); assay: Alphascreen Surefire phospho-ERK1/2 functional assay, M4; conditions: for % Emax cf. ACh, M4 / EC50: CHO cells stably expressing human M4; for % Emax cf. ACh, M4 / Emax: Emax relative to ACh; for EC50: agonist 5 min, 37° C., read-out: pEC50 M4 (converted); for Emax: CHO, read-out: % Emax cf. ACh, M4, CHO cells stably expressing human M4
T4 construct: expressed in transfected cells
T4 sequence (P08173 1-479): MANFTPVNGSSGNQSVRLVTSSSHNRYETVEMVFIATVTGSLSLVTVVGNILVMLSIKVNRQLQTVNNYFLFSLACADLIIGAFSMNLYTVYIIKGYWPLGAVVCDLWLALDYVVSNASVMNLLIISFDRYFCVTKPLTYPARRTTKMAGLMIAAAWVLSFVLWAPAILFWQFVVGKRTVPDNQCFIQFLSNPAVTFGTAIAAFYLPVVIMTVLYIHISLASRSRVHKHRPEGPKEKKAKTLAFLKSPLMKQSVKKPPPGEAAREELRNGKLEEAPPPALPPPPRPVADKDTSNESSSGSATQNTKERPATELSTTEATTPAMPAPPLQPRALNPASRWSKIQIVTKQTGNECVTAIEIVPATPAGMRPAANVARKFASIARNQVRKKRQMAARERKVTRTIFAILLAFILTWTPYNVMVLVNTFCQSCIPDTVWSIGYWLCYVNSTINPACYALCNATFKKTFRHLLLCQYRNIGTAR
Experimental: as §1, §2

Row | SMILES | % Emax cf. ACh, M1 [1] | EC50 [1] | EC50 [2] | Emax [2] | EC50 [3] | Emax [3] | % Emax cf. ACh, M4 [4] | EC50 [4] | Emax [1] | Emax [4] | % Emax cf. ACh, M1 ([1]; listed as 4-9 Isomer 1) | % Emax cf. ACh, M4 ([4]; listed as 4-9 Isomer 1)
1 | CCN(CC)C(=O)OC1CN(C2CCC3(C2)CN(C(=O)OC)C3)C1 (single isomer, unassigned) [Example 4-6 Isomer 2, Methyl 6-(3-((diethylcarbamoyl)oxy)azetidin-1-yl)-2-azaspiro[3.4]octane-2-carboxylate] | 93% | 214 nM | > 20000 nM | 9% | > 20000 nM | 11% | 32% | 339 nM | – | – | – | –
2 | CCOC(=O)N1CC2(CCC(N3CC(OC(=O)N4CCOCC4)C3)C2)C1 (single isomer, unassigned) [Example 4-8 Isomer 1, 1-(2-(Ethoxycarbonyl)-2-azaspiro[3.4]octan-6-yl)azetidin-3-yl morpholine-4-carboxylate] | – | 57.5 nM | > 20000 nM | 2% | > 20000 nM | 4% | – | > 20000 nM | 72% | 14% | – | –
3 | CCOC(=O)N1CC2(CCC(N3CC(OC(=O)N4CCCOCC4)C3)C2)C1 (single isomer, unassigned) [Example 4-9 Isomer 1, 1-(2-(Ethoxycarbonyl)-2-azaspiro[3.4]octan-6-yl)azetidin-3-yl 1,4-oxazepane-4-carboxylate] | – | 57.5 nM | > 20000 nM | 3% | > 20000 nM | 2% | – | > 20000 nM | – | – | 37% | 7%

Second part, the compound after the results:

Row | % Emax cf. ACh, M1 [1] | EC50 [1] | EC50 [2] | Emax [2] | EC50 [3] | Emax [3] | % Emax cf. ACh, M4 [4] | EC50 [4] | Emax [1] | Emax [4] | % Emax cf. ACh, M1 ([1]; listed as 4-9 Isomer 1) | % Emax cf. ACh, M4 ([4]; listed as 4-9 Isomer 1) | SMILES
4 | – | 75.9 nM | > 20000 nM | 7% | > 20000 nM | 8% | – | 49 nM | 51% | 29% | – | – | CCOC(=O)N1CC2(CCC(N3CC(OC(=O)N4CCCC4)C3)C2)C1 (single isomer, unassigned) [Example 4-7 Isomer 1, Ethyl 6-(3-((pyrrolidine-1-carbonyl)oxy)azetidin-1-yl)-2-azaspiro[3.4]octane-2-carboxylate]
5 | – | 117 nM | > 20000 nM | 9% | > 20000 nM | 5% | – | 490 nM | 86% | 50% | – | – | CCOC(=O)N1CC2CCC1CC2N1CC(OC(=O)N2CCCCCC2)C1 (single isomer, unassigned) [Example 6-4 Isomer 1, Ethyl 5-(3-((azepane-1-carbonyl)oxy)azetidin-1-yl)-2-azabicyclo[2.2.2]octane-2-carboxylate]
